# Source: US8911953B2, “TDF-related compounds and analogs thereof, analogs and bioactive fragments” (Thrasos Innovation, Inc., priority 2005, dated 2014)
# Positions of bridges follow the written chain, without caps; N, C: chain ends. No end group written: not given here.
# Key:
# LNCaP = assay: Cancer cell proliferation, tritiated thymidine incorporation; assay type: cell-based, human; details: LNCaP cultured in vitro
# From the text: (§1) TDFRP Compound Inhibition of LNCaP Cancer Cell Proliferation. BMP-6 and a TDFRP compound (SEQ ID NO:45) inhibited the proliferation of prostate cancer cells (LNCaP and PC-3) cultured in vitro as detected by the incorporation of tritiated thymidine (a measure of cell proliferation.
# (§2) Prostate cancer is one of the most common cancers in men. […] Moreover, it has been shown that BMP signals inhibit the growth and the proliferation of human prostate tumor cells by upregulating the cyclin-dependent kinase inhibitor (CDKI) p21 (CIP1/WAF1) and decreasing the activity of Cdk2, leading to hypophosphorylation of Rb proteins. TDFRP compounds have been screened in in vitro prostate and bladder cancer bioassays to assess growth inhibitory activity of the compounds (FIG. 3). ^3H-thymidine incorporation is used as a marker for cell proliferation activity in human prostate and bladder cancer cell lines. Cisplatin inhibits ^3H-thymidine incorporation, indicating a tumor-growth suppressive activity of cisplatin in both human prostate and bladder cancer cells. TDFRP compounds are assayed in these cancer cells for the ability to induce receptor-regulated Smad 1/5 phosphorylation in a dose-dependent manner (FIG.).
# as §2, with “(FIGS. 3, 28).” for “(FIG. 3).”, “(FIGS. 3, 28).” for “(FIG.).”
# PC-3 = assay: as above; assay type: cell-based, human; details: PC-3 cultured in vitro
# From the text: as §1, §2
# as §2, with “(FIGS. 3, 28).” for “(FIG. 3).”, “(FIGS. 3, 28).” for “(FIG.).”
# [1] = system: HK-2 (Human Kidney-2) cells; assay: HK-2 cell culture, TNF-alpha induced cytokine and adhesion molecule production (ELISA); assay type: cell-based; details: proximal tubule cells
# Method: Injury of PTEC by TNF-α and cisplatin (an anti-neoplastic agent) results in the induction of apoptosis, as shown by DNA damage, mitochondial disfunction, BAX […] and caspase activation. BMP-7 protects PTEC/kidney function by inhibiting TNF-α and cisplatin-induced apoptosis in these cells. The immortalized PTEC-derived HK-2 (Human Kidney-2) cells (ATCC number CRL-2190) were grown in serum-free keratinocyte medium (GIBCO number 17005-042) supplemented with epidermal growth factor (EGF: 5 ng/mL) and bovine pituitary extract (40 ug/mL) for 48 hours as described previously (Ryan et al. (1994) Kidney International 45:48-57). Cells were transferred to 24-well plates at a density of 3×10^5 cells per well. After 24 hours, cells were incubated with fresh medium containing TNF-alpha (5 ng/mL) for 20 hours. Controls received medium alone. Then cells were washed twice with fresh culture medium and further incubated with culture medium alone (medium control, and TNF control wells) or TDF-1 at three different concentrations (40, 200 or 1000 ng/mL) or TDFRP compounds at three different concentrations (4, 20 or 100 uM) for sixty hours. During incubation, cells were kept in a 5% CO2 humid atmosphere at 37° C. […] The concentrations of IL-6, IL-8 and sICAM-1 in culture supernatants were measured by specific ELISA (FIG. 14). […]
# ALK-6 = ALK-6 (Homo sapiens, UniProt O00238); details: native protein; cited from earlier work
# Sequence of ALK-6 (O00238 14-502): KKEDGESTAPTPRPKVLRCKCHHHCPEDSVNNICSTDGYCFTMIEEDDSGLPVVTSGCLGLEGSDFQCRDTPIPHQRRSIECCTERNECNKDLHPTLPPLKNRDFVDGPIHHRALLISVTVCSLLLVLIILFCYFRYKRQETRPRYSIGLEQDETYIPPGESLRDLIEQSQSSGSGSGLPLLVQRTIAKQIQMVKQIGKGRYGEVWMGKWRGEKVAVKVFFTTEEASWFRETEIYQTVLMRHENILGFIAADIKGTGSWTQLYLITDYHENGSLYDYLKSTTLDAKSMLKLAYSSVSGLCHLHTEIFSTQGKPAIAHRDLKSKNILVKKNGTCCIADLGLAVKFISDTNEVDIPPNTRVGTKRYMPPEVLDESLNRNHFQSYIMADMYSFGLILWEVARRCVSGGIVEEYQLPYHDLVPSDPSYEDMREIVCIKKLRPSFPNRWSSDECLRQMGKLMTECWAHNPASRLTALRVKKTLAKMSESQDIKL
molecule,measurement,setting,value
CYFDDSSNVLCKKYRS (disulfide 1-11 (inferred); not fully specified) [SEQ ID NO:45],proliferation (incorporation of tritiated thymidine),LNCaP,inhibited
same,proliferation (incorporation of tritiated thymidine),PC-3,inhibited
same,TNF-alpha induced inflammatory response (increase in IL-6),[1],alleviate
"BMP-7: recombinant human mature BMP-7 (BMP-7 or TDF-1), positive control therapy (protein) STGSKQRSQNRSKTPKNQEALRMANVAENSSSDQRQACKKHELYVSFRDLGWQDWIIAPEGYAAYYCEGECAFPLNSYMNATNHAIVQTLVHFINPETVPKPCCAPTQLNAISVLYFDDSSNVILKKYRNMVVRACGCH",affinity of binding to ALK-6,ALK-6,higher affinity
